Assay results from BigSolDB 2.1.

Nc1ccc([N+](=O)[O-])cc1[N+](=O)[O-]
solubility (mole fraction)
Conditions	in acetone	in acetonitrile	in ethanol	in ethyl acetate	in isopropanol	in methanol	in n-butanol	in n-propanol	in toluene
278.15 K	0.0281	0.00772	0.00126	0.0116	0.000854	0.00126	0.00144	0.00103	0.00033
280.65 K	0.0304	0.00829	0.0014	0.0127	0.00097	0.00138	0.00154	0.00116	0.000383
283.15 K	0.0328	0.00893	0.00154	0.0138	0.0011	0.00156	0.00172	0.00131	0.000443
285.65 K	0.0355	0.0098	0.00173	0.0151	0.00125	0.00173	0.00193	0.00146	0.000511
288.15 K	0.0381	0.0108	0.00193	0.0163	0.00142	0.00192	0.00216	0.00163	0.000573
290.65 K	0.0407	0.0118	0.00211	0.0177	0.00159	0.00212	0.00243	0.0018	0.000642
293.15 K	0.0437	0.0127	0.00232	0.0191	0.00177	0.00232	0.00271	0.00198	0.000724
295.65 K	0.0467	0.0138	0.00254	0.0205	0.002	0.00253	0.00299	0.00217	0.000814
298.15 K	0.0497	0.0149	0.00278	0.0221	0.00227	0.00276	0.00329	0.00238	0.000917
300.65 K	0.0531	0.0161	0.00304	0.0238	0.00253	0.00301	0.00365	0.00262	0.00102
303.15 K	0.0565	0.0174	0.00331	0.0257	0.00281	0.00327	0.00406	0.00287	0.00114
305.65 K	0.0604	0.0188	0.00359	0.0278	0.00313	0.00356	0.00447	0.00314	0.00128
308.15 K	0.0642	0.0203	0.00391	0.0301	0.00346	0.00386	0.00494	0.00346	0.00142
310.65 K	0.0682	0.0216	0.00428	0.0324	0.00383	0.00421	0.00543	0.0038	0.00158
313.15 K	0.0723	0.023	0.00468	0.035	0.00426	0.00456	0.00589	0.00413	0.00175
315.65 K	0.0769	0.0247	0.00511	0.0374	0.00469	0.00493	0.00646	0.00452	0.00193
318.15 K	0.0815	0.0264	0.00555	0.0403	0.00522	0.00537	0.00712	0.00493	0.00217
